Patent publication US5789414A, “Pharmaceutical compositions comprising tetrahydropyrimidine derivates” (Yeda Research and Development Co. Ltd., priority 1992, dated 1998)
Numbered stars: 1 amine (or outer) side, 2 acyl side, 3 side chain; on linkers, the order of the positions; unused ones are H or OH. Bridge positions count the residues as written; N and C are the ends. Square brackets hold non-standard residues; d marks the D form. Peptide text beside a SMILES is read from it. I, II: the chains in the order shown. Actinocin(9to1) = Cc1c2oc3c(C)ccc(C(=O)[*:1])c3nc-2c(C(=O)[*:2])c(N)c1=O; NMeV = CN[C@H](C(=O)O)C(C)C; Sar = CNCC(=O)O

Assays:
[1] = system: d(ATGCAT); experiment: 1H NMR titration: equilibrium binding of Act D to d(ATGCAT) in presence and absence of THPs; details: no THPs
Description: Expanded views of (a) and (a') are shown in spectra (A) and (A'), respectively of FIG. 4(b). The spectra were obtained at pH 7 (as in FIG. 3).
(c) Binding of Act D to d(ATGCAT). The binding of Act D to free oligonucleotide and to the oligonucleotide-THPs complex have been investigated by the ^1 H NMR titration technique.
The equilibrium binding properties of Act D-d(ATGCAT) in the presence and absence of the THPs (Table 4) were derived from the proton peak area ratios of the free hexamer to the bound Act D-hexamer.

[2] = system: RNA polymerase I from HeLa cells; experiment: In vitro transcription of dCMP-tailed template, RNA polymerase I; type: biochemical, mammalian
Description: The inhibition of RNA polymerase transcription caused by Act D binding to DNA was studied using the system described in Kadesch and Chamberlin, 1982, in which purified RNA polymerases from mammalian cells, such as RNA polymerases I, II and II from HeLa cells, are able to transcribe defined dCMP-tailed DNA templates efficiently and specifically. The dCMP-tailed DNA system allows quantitative studies of transcription reactions by the polymerase protein itself in the absence of other protein factors, and is thus an appropriate system to analyze the direct effect of DNA-binding drugs on the transcription process, and the protective effect of THP(A) and THP(B) on transcription in the presence of Act D. […]
(§1) Transcription reaction mixtures were incubated in 15 μl of transcription buffer containing 70 mM Tris-HCl (pH 7.9), 0.1M NH4 Cl, 6 mM MgCl2, 5 mM spermidine, 10% glycerol, 0.15 mM dithriothreitol, 0.6 μg of dCMP-tailed template, and 0.5 μl of HeLa RNA polymerase (3u) at 30° C. for 10 min. […] The autoradiogram of the gel was analyzed by molecular dynamics computing densitometer to determine the relative intensities of the bands. […]
(§2) The sensitivity of the three RNA polymerases from HeLa cells to various concentrations of Act D was determined, using the purified polymerases and a dCMP-tailed template of 225 bp for pol I and of 420 bp for pol II and pol III. […]

[3] = system: RNA polymerase II from HeLa cells; experiment: In vitro transcription of dCMP-tailed template, RNA polymerase II; type: biochemical, mammalian; details: for effect of the THP by itself on the transcription reactions: lanes 2, 6, 10
Description: FIG. 5 is a radiogram showing the inhibition of RNA polymerase II transcription by Act D and its resumption due to the addition of THP(A) and THP(B). Relative intensities of the bands were determined as in Table 6. The concentration of the DNA was 71.4 μM.
(§3) The inhibition of RNA polymerase transcription caused by Act D binding to DNA was studied using the system described in Kadesch and Chamberlin, 1982, in which purified RNA polymerases from mammalian cells, such as RNA polymerases I, II and II from HeLa cells, are able to transcribe defined dCMP-tailed DNA templates efficiently and specifically. The dCMP-tailed DNA system allows quantitative studies of transcription reactions by the polymerase protein itself in the absence of other protein factors, and is thus an appropriate system to analyze the direct effect of DNA-binding drugs on the transcription process, and the protective effect of THP(A) and THP(B) on transcription in the presence of Act D.
(§4) DNA-dependent RNA polymerases I, II and III from HeLa cells (pol I, pol II and pol III, respectively) were purified by a method which is a modification of the procedure described by Hodo and Blatti, 1977.
(§5) The templates DNA were linearized by restriction enzyme Pst I generating a 3' protruding end, and tailed at both ends with dCTP by using terminal transferase (Boehringer Mannheim). Following ethanol precipitation, the dCMP-tailed DNAs were digested with a second restriction enzyme, and the selected tailed fragment was purified from agarose gel as described by Kadesch and Chamberlin, 1982.
Transcription reaction mixtures were incubated in 15 μl of transcription buffer containing 70 mM Tris-HCl (pH 7.9), 0.1M NH4 Cl, 6 mM MgCl2, 5 mM spermidine, 10% glycerol, 0.15 mM dithriothreitol, 0.6 μg of dCMP-tailed template, and 0.5 μl of HeLa RNA polymerase (3u) at 30° C. for 10 min. Pulse buffer (3.5 μl) containing 4.3 mM of ATP, GTP and CTP, and 170 μM UTP, 20 μCi of [α-^32 P]UTP was added to the transcription reaction mixture for 20 seconds incubation. Transcription elongation then took place by adding 1.5 μl of chase buffer containing 7 mM UTP in the presence or absence of 0.06 μg Act D. Transcription elongation was carried out for 10 min and was then stopped by addition of proteinase K buffer (0.6% SDS; 25 mM Tris pH 7.9; 25 mM EDTA final concentration) 200 μg/ml proteinase K, and 30 μg of tRNA, and incubated for 25 min at 65° C. The sample was ethanol precipitated, pellet was resuspended in loading buffer (90% formamide; 0.5×Tris borate buffer) and subjected to 6% polyacrylamide--urea gel electrophoresis. The autoradiogram of the gel was analyzed by molecular dynamics computing densitometer to determine the relative intensities of the bands. (Nucleoside triphosphates and tRNA were purchased from Sigma, proteinase K from Boehringer Mannheim, and [α-^32 P]CTP (400 Ci/mmol) from Amersham International, United Kingdom).
The sensitivity of the three RNA polymerases from HeLa cells to various concentrations of Act D was determined, using the purified polymerases and a dCMP-tailed template of 225 bp for pol I and of 420 bp for pol II and pol III. These templates are expected to give runoff transcripts of 225 and 420 nucleotides, respectively, since RNA polymerase initiates transcription at discrete sites at the single-stranded tail double stranded duplex junction. In all experiments a pulse-chase protocol was used.
It was figured that the concentration of the THP(A)+THP(B) required to prevent binding of Act D to DNA would be higher than that of Act D, since they are expected to protect the DNA in general and not necessarily at d(GpC) base pair (bp), whereas the concentration of Act D is related to the d(GpC) content of the DNA. […] Yet when THP(A) and THP(B) were added together in a ratio of 1:1, their effect was dramatic. At a concentration of 200 μM there was a recovery of 75% of transcription in the presence of 2.5 μM Act D, which by itself would have inhibited 97% of the reaction. […]

[4] = system: RNA polymerase III from HeLa cells; experiment: In vitro transcription of dCMP-tailed template, RNA polymerase III; type: biochemical, mammalian
Description: as §3, §4, §5, §1, §2

[5] = system: RNA polymerases I, II and III from HeLa cells; experiment: In vitro transcription of dCMP-tailed template, summary for the three polymerases; type: biochemical, mammalian; details: pol I
Description: as §3, §1, §2

[6] = system: HeLa whole cell extract (WCE); experiment: In vitro transcription using HeLa whole cell extract (WCE); type: biochemical
Description: The DNA was preincubated with THPs (A+B) at increasing concentrations for 20 min at 30° C., actinomycin D was then added at a concentration of 0.4 μg/ml. Following 20 min of incubation, WCE (10 μl) was added for incubation of 20 min at 30° C. Radioactive nucleotide mix was then added for a pulse of 5 min followed by addition of chase mix containing 10 mM CTP. Transcription proceeded for 30 min at 30° C. and was then stopped. […] Lane M--molecular weight markers. Lane C--control reaction without […] or THPs. Lanes of reaction with 0.4 μg/ml actinomycin D are marked (+), lanes of increasing concentrations of THPs (0, 5, 10, 20, 50, 100, 200, 500 μg/ml) are also marked above the lanes.
A 20-μl reaction contained 10 μl WCE, 1 μg DNA, 4 mM creatine phosphate, 500 μM ATP, GTP, UTP, 50 μM CTP, 20 μCi of [α-^32 P]CTP, and transcription was performed at 30° C. All reactions were preincubated 20 min before the addition of the nucleotide mixture; 3 min after the addition of radioactive nucleotides, (pulse), chase mix containing 10 mM unlabelled CTP was added and transcription proceeded for additional 20 min.

[7] = Toxicity on administration to mice; type: in vivo; details: doses of 1, 10 and 100 mg/100 g body weight
Description: (§6) THP(A) and THP(B) are not toxic to mammals.

[8] = system: gram positive and gram negative bacteria; experiment: Antibiotic activity test on bacterial cultures; type: cell-based; details: several cultures of gram positive and gram negative bacteria
Description: as §6

[9] = system: E. coli; experiment: E. coli growth under high salt or in the presence of adriamycin; type: cell-based; details: conditions which otherwise prevent E. coli growth
[10] = system: enzymes; details: e.g. against heating, freezing and drying; cited from earlier work
[11] = system: HL60 cells; experiment: [3H] thymidine incorporation (DNA synthesis) in HL60 cells; type: cell-based; details: Homo sapiens, HL-60, read-out: inhibition of [3H] thymidine incorporation
Description: FIG. 6 illustrates reversal of adriamycin inhibition of DNA synthesis due to THPs. It depicts a schematic presentation of percent [^3 H] thymidine incorporated versus adriamycin concentration according to the table below the scheme. Empty squares--[^3 H] thymidine incorporation versus adriamycin concentration. Filled squares--[^3 H] thymidine incorporation versus adriamycin concentration in the presence of THPs (100 μg/ml).
HL60 cells were grown in RPMI medium (Gibco) containing 10% fetal calf serum (Biological Laboratories--Bet Haemek) in microwell plates (Nunc). Cells were suspended in medium at a concentration of 2×10^5 cells per ml and dispersed into the wells of the plates in 100 μl aliquots. Following 20 hrs of incubation at 37° C., the cells were treated with THPs (100 μg/ml) and adriamycin at increasing concentrations as indicated in FIG. 6. After 24 hrs [^3 H] thymidine was added (1 μCi/well, […]) for a duration of 3 hrs. Thymidine incorporation was stopped by addition of 25 μl trichloroacetic acid (TCA) at 20%, and the plates were placed at 4° C. overnight. TCA precipitates were washed with 10% TCA (100 μl), solubilized in 100 μl 1N NaOH and transferred to vials for counting in the presence of 3 ml scintillation solution containing toluene:Lumax (Lumac, The Netherlands) (3:2) mix. Assays were performed in triplicates.

[12] = THP 10 μg/ml (66 μM, 60 μM printed for THP(B)), Act D 3 μg/ml [2.5 μM]
[13] = THP 30 μg/ml (200 μM), Act D 3 μg/ml [2.5 μM]
[14] = THP 60 μg/ml (400 μM), Act D 3 μg/ml [2.5 μM]
[15] = THP 60 μg/ml (400 μM), without Act D

## Cc1c2oc3c(C)ccc(C(=O)N[C@@H]4C(=O)N[C@H](C(C)C)C(=O)N5CCC[C@H]5C(=O)N(C)CC(=O)N(C)[C@@H](C(C)C)C(=O)O[C@@H]4C)c3nc-2c(C(=O)N[C@@H]2C(=O)N[C@H](C(C)C)C(=O)N3CCC[C@H]3C(=O)N(C)CC(=O)N(C)[C@@H](C(C)C)C(=O)O[C@@H]2C)c(N)c1=O [Act D, Actinomycin D] (I: T[dV]P[Sar][NMeV] / II: T[dV]P[Sar][NMeV]; ester I:1-I:C, II:1-II:C; linker I:N-II:N via Actinocin(9to1))
[1]; molar ratio Act D/d(ATGCAT) 0.16
  d(ATGCAT) (free/bound): 4.9
[1]; molar ratio Act D/d(ATGCAT) 0.32
  d(ATGCAT) (free/bound): 1.7
[1]; molar ratio Act D/d(ATGCAT) 0.48
  d(ATGCAT) (free/bound): 0.8
[1]; molar ratio Act D/d(ATGCAT) 0.64
  d(ATGCAT) (free/bound): 0.4
[2]; Actinomycin-D 1 μg/ml
  Percentage of residual transcription: 16%
[2]; Actinomycin-D 5 μg/ml
  Percentage of residual transcription: 3%
[3]; Act D 2.5 μM (3 μg/ml) by itself
  inhibition of transcription: 97%
[3]; Act D 3 μg/ml [2.5 μM], THP 0
  % transcription: 0.2%
[3]; Actinomycin-D 1 μg/ml
  Percentage of residual transcription: 22%
[3]; Actinomycin-D 4 μg/ml
  Percentage of residual transcription: 3%
[3]; Actinomycin-D 5 μg/ml
  Percentage of residual transcription: 3%
[4]; Actinomycin-D 1 μg/ml
  Percentage of residual transcription: 13%
[4]; Actinomycin-D 3 μg/ml
  Percentage of residual transcription: 3%
[4]; Actinomycin-D 5 μg/ml
  Percentage of residual transcription: 0.1%
[5]; 1 μg/ml Act D added with the chase
  residual transcription: 10-20%
[5]; Act D 3-5 μg/ml
  residual transcription: 0.1-3%
[6]; Act D alone at 0.4 μg/ml
  inhibition of the transcription reaction: 80%
[6]; actinomycin D alone, 0.4 μg/ml
  residual transcription: 20%

## CC1=NCC(O)C(C(=O)O)N1 (stereo not drawn) [THP(A), 2-methyl-4-carboxy-5-hydroxy-3,4,5,6-tetrahydropyrimidine]
[7]
  toxic effects: no toxic effects
[8]
  antibiotic activity: do not have antibiotic activity
[9]
  growth of E. coli in the presence of adriamycin: enable efficient growth of E. coli
  growth of E. coli under high salt concentrations: enable efficient growth of E. coli
[3]; [12]
  % transcription: 0.2%
[3]; [13]
  % transcription: 0.5%
[3]; [14]
  % transcription: 1.5%
[3]; [15]
  % transcription: 100%
[3]; without Act D
  effect of the THP by itself on the transcription reactions: did not inhibit the transcription reactions

## CC1=NCC[C@@H](C(=O)O)N1 [THP(B), 2-methyl-4-carboxy-3,4,5,6-tetrahydropyrimidine]
[8]
  antibiotic activity: do not have antibiotic activity
[3]; [12]
  % transcription: 1.0%
[3]; [13]
  % transcription: 2.7%
[3]; [14]
  % transcription: 5.1%
[3]; [15]
  % transcription: 100%
[3]; without Act D
  effect of the THP by itself on the transcription reactions: did not inhibit the transcription reactions
[10]
  protective effect on enzymes: protective effect on enzymes

## COc1cccc2c1C(=O)c1c(O)c3c(c(O)c1C2=O)C[C@@](O)(C(=O)CO)C[C@@H]3O[C@H]1C[C@H](N)[C@H](O)[C@H](C)O1 [adriamycin]
[11]
  inhibition at 0.01 µg/mL: 30%
  inhibition at 0.02 µg/mL: 40%
